Key:
[1] = system: male and female Drosophila suzukii antennae; experiment: Electroantennogram (EAG) assay; settings: for strength of EAG response compared among treatments: 0.001-10 mg doses; for antennal (EAG) response: 0.001-10 mg doses in hexane, N=10
Method: Electroantennogram (EAG) assays were conducted to determine the antennal response of sexually mature male and female D. suzukii to ethyl butanoate, ethyl (E)-but-2-enoate, and 2-pentylfuran. The antennal responses of male and female D. suzukii to each compound were tested at five doses (0.001 mg, 0.01 mg, 0.1 mg, 1 mg, and 10 mg) diluted in hexane. The stimulus cartridge preparations, antennal preparations, and EAG apparatus used were similar to those previously described in the literature. Stimulus applicators consisted of a 14.5-cm-long glass Pasteur pipette containing 20 μL of each volatile dose (or hexane control) pipetted onto a 6×0.5-cm strip of filter paper. The applicators containing the impregnated filter paper were placed under the fume hood for 2 min to allow the hexane to evaporate. For the recording and base electrodes, a silver wire was inserted into a drawn capillary tube filled with phosphate-buffered saline (NaCl, 4 g; NA2HPO4, 0.57 g; KH2PO4, 0.1 g; KCl, 0.1 g in 500 ml distilled water). To attach the base electrode to the fly, the fly's abdomen was removed, and the sharp tip of the saline-filled capillary tube was pulled directly into the thoracic cavity. Once the fly preparation was mounted, the recording electrode was carefully moved toward the antenna using a micromanipulator until the antenna touched the pool of saline solution on the recording electrode. Antennal preparations were exposed to a constant stream of charcoal-filtered and humidified air at a rate of 1.5 l/min.
The EAG apparatus consisted of an IDAC-02 interface board for data acquisition and used Syntech software (Syntech Ltd., Hilversum, The Netherlands) for recording, storing, and quantifying EAG responses. Antennal preparations were primed with 1 mg of acetoin, a known attractant and antennally active compound, to ensure that the antennae were prepared correctly and responsive (positive control). Then, the antennae were exposed to a hexane control, followed by exposure to increasing doses of one of the volatiles. Each antenna was exposed to four rounds of each dose of a single compound before being discarded. Six antennae were tested daily: three from males and three from females. Test and control compounds were applied at 10 second(s) intervals at a pulse rate of 0.5 s, with a 1-min interval between each stimulus. Maximum amplitudes of depolarizations were measured (in millivolts) for each compound with the response from the hexane-only controls subtracted from the other doses to normalize the antennal response. In total, each dose of each compound was replicated 10 times for each sex.
To analyze the effect of dose of the three repellents on D. suzukii antennal responses, a generalized linear model (GLM) was used with a Poisson distribution and a log link function in SPSS Statistics 23.0 (IBM Corp, Armonk, NY, USA). The model included ‘Treatment’ (ethyl butanoate, ethyl (E)-but-2-enoate, and 2-pentylfuran), ‘Dose’, ‘Sex’, and their interactions as independent variables. This analysis, when significant, was followed by post hoc Bonferroni tests (α=0.05) to determine individual differences among groups. Prior to analysis, EAG data were normalized relative to the response to the hexane control.

[2] = Emission rate from polyethylene sachets, field cages; type: physicochemical; settings: field cage; sachets weighed before and 3 days after deployment
Text: Twenty-four hours after deploying the sachets, 120 flies (approximately 60 males and 60 females) were released into each cage at 18:00 hrs (N=120 flies×4 treatments×4 replicates=1,920 total flies). To ensure even distribution within the cages, 30 flies were released at four equidistant points between the bushes. A pre-sampling of the berries, conducted before the flies were released, confirmed the absence of any infestation. Berries were then collected 1-, 2-, and 3-days post-treatment. From every other bush (starting at the focal bush) in the cage, 50 berries from the top half and 50 from the bottom half were collected into two separate 236.6 mL deli containers lined with two cotton pads. From each berry sample, a random subsample of 10 berries were examined and egg counts recorded before being returned to the original container. The blueberries were incubated on a light bench in the laboratory for up to two weeks, as previously described, and adult emergence was recorded. The sachets were weighed before deployment and 3 days after deployment to measure the emission rates of each compound. Finally, the emission rates of compounds in the semi-field and field cage studies were calculated by subtracting the final weight of the sachets from the initial weight and dividing by the time interval (24 h or 3 days). These rates were then compared across repellent treatments using ANOVA, with Tukey pairwise comparisons conducted when significant differences were found.

In the case of CCCC(=O)OCC [ethyl butanoate], the “strength of EAG response compared among treatments” value [1] is reported as “stronger antennal responses than 2-pentylfuran”, the “antennal (EAG) response” value [1] is reported as “dose-dependent antennal responses” and the “emission rate (mean±SE)” value [2] is reported as 697.97 ± 7.96 mg/day.
With C/C=C/C(=O)OCC [ethyl (E)-but-2-enoate] the “strength of EAG response compared among treatments” value [1] was “stronger antennal responses than 2-pentylfuran”, the “antennal (EAG) response” value [1] was “dose-dependent antennal responses” and the “emission rate (mean±SE)” value [2] was 679.23 ± 17.73 mg/day.
For CCCCCc1ccco1 [2-pentylfuran, reference compound], the “antennal (EAG) response” value [1] was “dose-dependent antennal responses” and the “emission rate (mean±SE)” value [2] was 559.73 ± 23.54 mg/day.

— patent publication US20250169495A1, “COMPOSITIONS AND METHODS FOR CONTROLLING DROSOPHILA FLIES” (Rutgers, The State University of New Jersey, priority 2023, published 2025)
